Experiments:
Type in all cases: cell-based, Human
IL-1α [1] = assay: IL-1α release (ELISA) in keratinocyte cells stimulated with methyl salicylate; conditions: for inhibition of MS induced IL-1α release: summary statement
Procedure: (§1) Reagents methyl salicylate, ethacrynic acid, trehalose A, B, and C were obtained from Sigma-Aldrich (St. Louis, Mo.). Trehaloses were dissolved in keratinocyte media. Methyl salicylate was diluted in keratinocyte media. Ethacrynic acid was dissolved in DMSO. Keratinocyte cells were grown to 100% confluency as per the instructions given by ATCC. Then the cells were trypsinized to dislodge cells and spun at 3000 rpm for 3 min. The supernatant was aspirated and the cells were re-suspended in fresh media at a density of 1.0×10^6 cells per mL. The cell suspension was the pipetted into a 96-well plate (200 ul of per well) and cells were incubated overnight at 37° C. The next day morning media was aspirated, and 100 uL of fresh medium containing methyl salicylate (2%) was added to all the wells except for the (−) control wells. No MS was included in the (−) control wells. Then 100 uL of medium containing the various test reagents were added to the wells so that the final concentrations were as indicated in FIGS. 2-7. The 96-well plate was then incubated. After incubation for four hours at 36° C., the supernatant from the wells was transferred to centrifuge tubes and centrifuged to remove the cell debris. Then the presence of IL-1α was determined using ELISA kit (R&D systems, Inc.) as per the manufacturer's specifications. The cells remaining in the wells were treated with pre-warmed media containing MTT solution and incubated for four hours. Then the formazan product (metabolic product of MTT) in the wells was solubilized and the absorbance was measured using a plate reader.
Human keratinocytes were stimulated with MS in the absence or the presence of trehalose compounds, to find an optimal concentration of trehalose at which IL- 1α production is reduced by half compared to the positive control.

IL-1α [2] = assay: as above; conditions: substance alone; earlier work of the applicant
Keratinocyte cells = assay: MTT assay, cytotoxicity / cell viability of keratinocyte cells
Procedure: as §1, with “After incubation for four hours at 36° C., the supernatant from the wells was transferred to centrifuge tubes and centrifuged to remove the cell debris.” left out, “The cells remaining in the wells were treated with pre-warmed media containing MTT solution and incubated for four hours.” left out, “reader. […]” for “reader.”

C=C(CC)C(=O)c1ccc(OCC(=O)O)c(Cl)c1Cl [Ethacrynic Acid, reference compound]
inhibition of MS induced IL-1α release (IL-1α [1]; concentration not given): inhibited the IL-1α release by MS | reduction in IL-1α levels compared to MS 1% (positive control) (IL-1α [1]; test substance at 0.16%, FIG. 2): over 50%

COC(=O)c1ccccc1O [MS, Methyl Salicylate]
release of primary cytokines, especially IL-1α, in epidermal keratinocytes (IL-1α [2]): stimulates release

OC[C@H]1O[C@H](O[C@H]2O[C@H](CO)[C@@H](O)[C@H](O)[C@H]2O)[C@H](O)[C@@H](O)[C@@H]1O [Trehalose A, trehalose]
effect on IL-1α levels, MS stimulated (IL-1α [1]; low concentrations of 0.1-2.5%): neither trehalose A nor B showed any effect | inhibition of MS induced IL-1α release (IL-1α [1]; concentration not stated, listed as trehalose A): capable of inhibiting MS induced IL-1α release | reduction in IL-1α levels compared to MS 1% (positive control) (IL-1α [1]; test substance at 2.5%, FIG. 2): no effect | reduction in IL-1α levels compared to MS 1% (positive control) (IL-1α [1]; test substance at 5%, FIG. 2): much lower levels of reduction

OC[C@H]1O[C@H](O[C@H]2O[C@H](CO)[C@@H](O)[C@H](O)[C@H]2O)[C@H](O)[C@@H](O)[C@@H]1O [Trehalose B, trehalose]
effect on IL-1α levels in Keratinocyte cells stimulated by 1% Methyl Salicylate (IL-1α [1]; FIG. 5, lower concentrations): no effect | effect on IL-1α levels in Keratinocyte cells stimulated by 1% Methyl Salicylate (IL-1α [1]; any concentrations that were tested, FIGS. 2 and 3): no effect | effect on IL-1α levels compared to MS 1% (positive control) (IL-1α [1]; at any of 2.5%, 5%, 10%, FIG. 2): no effect | inhibition of MS induced IL-1α release (IL-1α [1]; concentration not stated, listed as trehalose B): no effect

OC[C@H]1O[C@H](O[C@H]2O[C@H](CO)[C@@H](O)[C@H](O)[C@H]2O)[C@H](O)[C@@H](O)[C@@H]1O [Trehalose C, trehalose]
inhibition of MS induced IL-1α release (IL-1α [1]; concentration not stated, listed as trehalose C): no effect

[O]=[Zn] [Zinc Oxide]
MTT concentration levels in Keratinocyte cells (cell viability) (Keratinocyte cells; concentrations at which ZnO inhibited MS stimulated IL-1α release, FIG. 7): no effect | state of the cells (Keratinocyte cells; high concentrations of zinc oxide, FIG. 4 experiment): the cells were not active | effect on IL-1α levels in Keratinocyte cells stimulated by 1% Methyl Salicylate (IL-1α [1]; FIG. 5, lower concentrations): significant dose dependent decrease | IL-1α levels in Keratinocyte cells stimulated with 1% Methyl Salicylate (IL-1α [1]; concentration levels 10%-1.25%, FIG. 4): large decrease | MS stimulated IL-1α levels (IL-1α [1]; high concentrations, FIG. 4): dramatic reduction | inhibition of MS induced IL-1α release (IL-1α [1]; concentration not given): able to block MS induced IL-1α production as effectively as trehalose A | reduction in IL-1α concentrations induced by Methyl Salicylate (IL-1α [1]; test substance at 0.000125%, FIG. 5): greater than 50%
